# In US10941157B2, “Pesticidal compositions and uses thereof” (Gilead Apollo, LLC, priority 2015, dated 2021):
# Tests used:
# [1] = system: Botrtyis cinerea (Bc); assay: In vitro pathogen growth inhibition assay, Bc; assay type: cell-based; settings: 48 h, ≥90% inhibition; 48 hours vs 2% DMSO control; read-out: Compound Concentration (ppm) sufficient for ≥90% inhibition of growth, Bc
# How it was run: (§1)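 Spores in 17% V8 liquid medium, or 1.5 mm Rs mycelial plugs in ¼ PDB, incubated with compound; final concentration checked by OD600 for precipitation. OD readings at 24 and 48 h, blank-subtracted, plus visual ratings; value is concentration giving ≥90% growth inhibition.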
# [2] = system: Collectotrichum graminicola (Cg); assay: In vitro pathogen growth inhibition assay, Cg; assay type: cell-based; settings: 48 h, ≥90% inhibition; 48 hours vs 2% DMSO control; read-out: Compound Concentration (ppm) sufficient for ≥90% inhibition of growth, Cg
# How it was run: as §1
# [3] = system: Diplodia maydis (Dm); assay: In vitro pathogen growth inhibition assay, Dm; assay type: cell-based; settings: Stenocarpella maydis, 48 h, ≥90% inhibition; 48 hours vs 2% DMSO control; read-out: Compound Concentration (ppm) sufficient for ≥90% inhibition of growth, Dm
# How it was run: (§2)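 Spores of Dm, Fv and Pc were diluted in 17% V8 liquid medium; Rs used 1.5 mm mycelial plugs in ¼ PDB. Compounds from 2.5 mg/ml DMSO stocks were combined with inoculum, growth was read by OD600 at 24 and 48 h with blank subtraction, and the reported value is the concentration giving ≥90% inhibition.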
# [4] = system: Fusarium moniliforme (Fm); assay: In vitro pathogen growth inhibition assay, Fm; assay type: cell-based; settings: Fusarium verticillioides; ≥90% inhibition; 48 hours vs 2% DMSO control; read-out: Compound Concentration (ppm) sufficient for ≥90% inhibition of growth, Fm
# How it was run: as §1
# [5] = system: Fusarium virguliforme (Fv); assay: In vitro pathogen growth inhibition assay, Fv; assay type: cell-based; settings: ≥90% inhibition, 48 hours vs 2% DMSO control, read-out: Compound Concentration (ppm) sufficient for ≥90% inhibition of growth, Fv
# How it was run: as §2
# [6] = system: Phytophthora capsici (Pc); assay: In vitro pathogen growth inhibition assay, Pc; assay type: cell-based; settings: 48 h, ≥90% inhibition, 48 hours vs 2% DMSO control, read-out: Compound Concentration (ppm) sufficient for ≥90% inhibition of growth, Pc
# How it was run: as §2
# [7] = system: Rhizoctonia solani (Rs); assay: In vitro pathogen growth inhibition assay, Rs (mycelial plugs); assay type: cell-based; settings: Rhizoctonia solani, 48 h, ≥90% inhibition; mycelial plugs; 48 hours vs 2% DMSO control; read-out: Compound Concentration (ppm) sufficient for ≥90% inhibition of growth, Rs
# How it was run: as §2
# [8] = system: Septoria tritici (St); assay: In vitro pathogen growth inhibition assay, St; assay type: cell-based; settings: Zymoseptoria tritici, 48 h, ≥90% inhibition; 48 hours vs 2% DMSO control; read-out: Compound Concentration (ppm) sufficient for ≥90% inhibition of growth, St
# How it was run: as §1
# [9] = system: Saccharomyces cerevisiae (Sc); assay: Yeast growth inhibition assay; assay type: cell-based; settings: Saccharomyces cerevisiae, ≥75% inhibition, read-out: Compound Concentration (ppm) sufficient for ≥75% inhibition, Sc
# Method: Both tables list the concentration of each compound that was sufficient to ≥90% inhibition of growth for each of the fungal pathogens listed above. In addition, some of compounds were tested in a yeast growth inhibition assay for Saccharomyces cerevisiae (Sc). Table 2 lists the concentration of the tested compound that was sufficient to ≥75% inhibition of Saccharomyces cerevisiae (Sc).
# [10] = system: Blumeria graminis f. sp. hordei; assay: Foliar protection test for barley powdery mildew control; assay type: in vivo; settings: foliar spray on Hordeum vulgare cv. Perry, inoculated 24 hours after treatment, evaluated 7 days later
# How it was run: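 Six-day-old barley (cv. Perry) sprayed to wetness on both leaf sides; 24 h later inoculated by shaking spores from infected stock plants. Kept at 20 to 22° C, 70% relative humidity; mildew colonization assessed 7 days later.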
# [11] = system: Sphaerotheca fuliginea; assay: Foliar protection for cucumber powdery mildew control; assay type: in vivo; settings: foliar spray on Cucumis sativus cv. Straight Eight, inoculated 24 hours after treatment, evaluated 7 days later
# How it was run: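 Cucumber plants (cv. Straight Eight, 10 days old) sprayed to wetness on both leaf surfaces, then inoculated 24 h later by shaking sporulating stock plants over them. Held at 23–27 °C, 16 h light, 60% RH. Mildew colonization scored 7 days after inoculation, at compound concentrations of 10 ppm or lower.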
# [12] = system: Mycosphaerella graminicola (synthetic Septoria tritici); assay: Foliar protection test for wheat septoria leaf blotch control; assay type: in vivo; settings: foliar spray on Triticum aestivum cv. WinterHawk, inoculated 1 hour after treatment, evaluated 16 days later
# [13] = system: Fusarium graminearum; assay type: in vivo; settings: spray on flowering Triticum aestivum cv. Samson, inoculated 24 hours after treatment, evaluated 14 days later
# [14] = system: Puccinia triticina; assay: Foliar protection test for wheat leaf rust control; assay type: in vivo; settings: foliar application to wheat (Triticum aestivum cv. Winterhawk), evaluated 10 days later
# [15] = system: Phakopsora pachyrhizi; assay: Foliar protection test for Asian soybean rust control; assay type: in vivo; settings: foliar application to soybean (Glycine max AG4832), percent disease area evaluated 14 days later
Structure (SMILES),IC90 [1],IC90 [2],IC90 [3],IC90 [4],IC90 [5],IC90 [6],IC90 [7],IC90 [8],IC75 [9],Barley Powdery Mildew Control at a compound concentration of 10 ppm or lower [10],Cucumber Powdery Mildew Control at a compound concentration of 10 ppm or lower [11],Septoria Leaf Blotch Control at a compound concentration of 25 ppm or lower [12],Wheat Fusarium Head Blight Control at a compound concentration of 25 ppm or lower [13],Wheat Leaf Rust Control at a compound concentration of 10 ppm or lower [14],Asian Soybean Rust Control at a compound concentration of 25 ppm or lower [15]
"CCOC(=O)c1sc2c(c1C)c(=O)n(C(C)(C)C(=O)N1CCCC1)c(=O)n2C[C@H](OC1CCOCC1)c1ccccc1OC [Compound I-003, (R)-ethyl-1-(2-(2-methoxyphenyl)-2-((tetrahydro-2H-pyran-4-yl)oxy)ethyl)-5-methyl-3-(2-methyl-1-oxo-1-(pyrrolidin-1-yl)propan-2-yl)-2,4-dioxo-1,2,3,4-tetrahydrothieno[2,3-d]pyrimidine-6-carboxylate]",2 µg/mL,0.4 µg/mL,2 µg/mL,0.08 µg/mL,0.4 µg/mL,> 50 µg/mL,0.4 µg/mL,≥ 10 µg/mL,0.4 µg/mL,A (from 70% to 84% control of barley powdery mildew),AA (≥85% control of cucumber powdery mildew),C (from 25 to 49% control of wheat septoria leaf blotch),B (from 50 to 69% control of wheat fusarium head blight),AA (≥85% control of wheat leaf rust),A (from 70% to 84% control of Asian soybean rust)
COc1ccccc1[C@H](Cn1c(=O)n(C(C)(C)C(=O)N2CCCC2)c(=O)c2c(C)c(-c3ncco3)sc21)OC1CCOCC1 [Compound I-005],2 µg/mL,2 µg/mL,2 µg/mL,0.08 µg/mL,2 µg/mL,> 50 µg/mL,0.4 µg/mL,> 10 µg/mL,0.4 µg/mL,,,,,,
"COc1ccc(F)cc1[C@H](Cn1c(=O)n(C(C)(C)C(=O)NC(C)C)c(=O)c2c(C)c(-n3cccn3)sc21)OC(C)C [Compound I-014, (R)-2-(1-(2-(5-fluoro-2-methoxyphenyl)-2-isopropoxyethyl)-5-methyl-2,4-dioxo-6-(1H-pyrazol-1-yl)-1,4-dihydrothieno[2,3-d]pyrimidin-3(2H)-yl)-N-isopropyl-2-methylpropanamide]",0.4 µg/mL,2 µg/mL,2 µg/mL,0.08 µg/mL,0.4 µg/mL,> 50 µg/mL,2 µg/mL,> 10 µg/mL,1.2 µg/mL,AA (≥85% control of barley powdery mildew),AA (≥85% control of cucumber powdery mildew),D (<25% control of wheat septoria leaf blotch),C (from 25 to 49% control of wheat fusarium head blight),A (from 70% to 84% control of wheat leaf rust),A (from 70% to 84% control of Asian soybean rust)
COc1ccccc1[C@H](Cn1c(=O)n(C(C)(C)C(=O)NC2CCC2)c(=O)c2c(C)c(-c3ncco3)sc21)OC1CCOCC1 [Compound I-099],10 µg/mL,50 µg/mL,10 µg/mL,0.4 µg/mL,50 µg/mL,> 50 µg/mL,50 µg/mL,> 50 µg/mL,33 µg/mL,,,,,,
COc1ccc(F)cc1[C@H](Cn1c(=O)n(C(C)(C)C(N)=O)c(=O)c2c(C)c(C3CCC3)sc21)OC1CCOCC1 [Compound I-147],10 µg/mL,50 µg/mL,> 50 µg/mL,2 µg/mL,2 µg/mL,> 50 µg/mL,50 µg/mL,> 50 µg/mL,33 µg/mL,,,,,,
COc1ccc(F)cc1[C@H](Cn1c(=O)n(C(C)(C)C(N)=O)c(=O)c2c(C)c(-c3ncco3)sc21)OCC1CCC(O)CC1 (stereo partly drawn) [Compound I-104],2 µg/mL,> 50 µg/mL,10 µg/mL,0.4 µg/mL,10 µg/mL,> 10 µg/mL,10 µg/mL,> 50 µg/mL,11 µg/mL,,,,,,
CCNC(=O)C(C)(C)n1c(=O)c2c(C)c(C(=O)OCC)sc2n(C[C@H](OC(C)C)c2ccccc2OC)c1=O [Compound I-108],2 µg/mL,10 µg/mL,10 µg/mL,0.4 µg/mL,2 µg/mL,> 50 µg/mL,50 µg/mL,> 50 µg/mL,11.1 µg/mL,,,,,,
COc1ccccc1[C@H](Cn1c(=O)n(C(C)(C)C(=O)NC(C)C)c(=O)c2c(C)c(-c3ncco3)sc21)OC1CCC(=O)CC1 [Compound I-013],0.4 µg/mL,10 µg/mL,0.4 µg/mL,0.08 µg/mL,2 µg/mL,> 50 µg/mL,10 µg/mL,≥ 10 µg/mL,0.14 µg/mL,,,,,,
CCOC(=O)c1sc2c(c1C)c(=O)n(C(C)(C)C(=O)N1CCOCC1)c(=O)n2C[C@H](OC(C)C)c1ccccc1OC [Compound I-109],0.4 µg/mL,10 µg/mL,2 µg/mL,0.4 µg/mL,10 µg/mL,> 50 µg/mL,50 µg/mL,> 50 µg/mL,11.1 µg/mL,,,,,,
COc1ccccc1[C@H](Cn1c(=O)n(C(C)(C)C(N)=O)c(=O)c2c(C)c(-c3ncco3)sc21)OC1CCOCC1 [Compound I-145],50 µg/mL,50 µg/mL,50 µg/mL,2 µg/mL,> 50 µg/mL,> 50 µg/mL,> 50 µg/mL,> 50 µg/mL,> 33 µg/mL,,,,,,
COc1ccccc1[C@H](Cn1c(=O)n(C(C)(C)C(N)=O)c(=O)c2c(C)c(-c3ncco3)sc21)O[C@H]1CC[C@@H](O)CC1 [Compound I-100],2 µg/mL,50 µg/mL,2 µg/mL,0.4 µg/mL,10 µg/mL,> 50 µg/mL,50 µg/mL,≥ 50 µg/mL,1.2 µg/mL,,,,,,
